# Legend:
# [1] = system: cancer cells; test: Growth inhibition, MTT/WST assay, antisense backbones; type: cell-based; conditions: maximal kill, 72 hours post treatment
# Description: The efficacies of various nucleic acid backbone chemistries were investigated by delivering […] to cancer cells in organ culture using a collection of nanoparticles that were less than about 50 nm in diameter. Recurrent head neck tumors are typically small (1-2 cm), but based on volumetric scaling between in vitro tumor nests and mouse studies, it is estimated that estimate that a dose of 3 5 mg will be required to locally treat a 2 cm tumor. Various nucleic acid chemistries may reduce this amount by either enhancing binding affinity between the target mRNA and the antisense, using the antisense to bind to DNA instead of RNA, or increasing nuclease resistance (and half-life). […] Biological activity was assayed as growth inhibition using the MTT/WST assay in a 96 well format. Cells were seeded at 20,000 per well, treated 18 hours later, then assayed at 72 hours post treatment. Although the cells are resistant to conventional chemotherapeutic agents, cisplatin activity is shown for reference (black line). […] Additional formats screened but not shown were a phosphodiester/2OME chimeric and the siRNA format.
# [2] = system: metastatic variant of Alva-41 prostate carcinoma cells; test: Growth inhibition by nanoencapsulated cisplatin; type: cell-based, human; conditions: 5,000 cells per well, 72 hours
# Description: Cisplatin was nanoencapsulated into the various candidate tumor binding agents as described previously and nanoparticles were compared for growth inhibition in a metastatic variant of Alva-41 prostate carcinoma cells and Ca-9-22. Formulas were tested in duplicate in two separate experiments. Results are illustrated for the prostate cell line in FIG. 5D. Referring to FIG. 5D, PEX-MMP-1/Cisplatin refers to s50 nanoparticles comprising cisplatin and the Recombinant Pex binding domain of membrane-associated Matrix Metalloproteinase-1 (see Bello et. al, Cancer Research (2001) 61: 8730-36); Tenascin/Cisplatin refers to s50 nanoparticles having tenascin and cisplatin, FN-PHSCN/Cisplatin refers to nanoparticles comprising the FN-PHSCN fragment and cisplatin, Osteonecetin/asCK2 refers to s50 nanoparticles comprising osteonectin and the asCK2 antisense sequence, galectin-3/cisplatin refers to s50 nanoparticles comprising galectin-3 and cisplatin, hyaluronan/cisplatin refers to s50 nanoparticles comprising hyaluronan and cisplatin, and naked cisplatin refers to the addition of free cisplatin to the cell medium. In these experiments cells were plated at 5,000 per well and followed for 72 hours. […] As a comparison, based on a standard male patient, an acceptable in vitro dose of cisplatin would correspond to about 10 μg/ml or 30 μM. […]
# [3] = system: SCC-15; test: Growth inhibition in chemoresistant head neck cancer cell line; type: cell-based, human
# Description: Antisense molecules were tested for growth inhibition against the chemoresistant head neck cancer cell line SCC-15 at 10,000 cells per well, the cells being pretreated with tenascin, with results as shown in FIG. 5B-C. Referring to FIG. 5B, PO refers to phosphodiester antisense referred to as asCK2 in Table 9 (SEQ ID NO 1), PO sense refers to phosphodiester sense sequence complementary to asCK2, siRNA refers to a duplex RNA sequence that is screened from the asCk2 sequence, 2OME RNA refers to a nucleic acid of the sequence SEQ ID NO 1 that is all RNA and is al methylated, and PO RNA refers to a proprietary chimeric molecule having the sequence of SEQ ID NO 1 but being a mixture of RNA and DNA and having phosphodiester and 2OME backbone. […] Because of it's capacity for being metabolized, the PO RNA construct within the context of a colloidal formulation will offer advantages in safety for delivery of cytotoxic constructs.
# Referring to FIG. 5C, cisplatin TN/x s-50 refers to nanoparticles comprising cisplatin and a 1:1 w/w ratio of tenascin:dextran. Tn s-50 refers to nanoparticles comprising cisplatin and tenascin, asCK2 TN s-50 refers to nanoparticles comprising tenascin and asCK2 antisense of sequence SEQ ID NO 1, and free cisplatin refers to cisplatin added to the cell medium.
# [4] = system: hormone-insensitive PC3 cells; test: Growth inhibition in prostate carcinoma cells; type: cell-based; conditions: PC3, 5,000 cells per untreated well
# Description: (§1) In these studies, cells were seeded at 5,000 cells per untreated well.
# [5] = system: hormone-sensitive Alva-41 prostate carcinoma cells; test: Growth inhibition in prostate carcinoma cells; type: cell-based, human; conditions: Alva-41, 5,000 cells per untreated well
# Description: as §1
compound,measurement,setting,value
"2-0 methyl RNA format: nucleic acid of the sequence SEQ ID NO 1 that is all RNA and methylated, in s50 nanoparticles (GTCCCGACATGTCAGACAGG; all 2'-O-methyl, backbone and T or U not given here; formulated in s50 nanoparticles)",complete kill achieved in vitro,[1],capacity for complete kill
"N.N.[Cl][Pt][Cl] [free cisplatin, cisplatin, reference compound]",IC50,[2],100 µM
same,overall in vitro kill,"[3]; SCC-15, FIG. 5C",zero
"PO RNA: chimeric molecule with sequence of SEQ ID NO 1, mixture of RNA and DNA, phosphodiester and 2OME backbone (antisense GTCCCGACATGTCAGACAGG; RNA/DNA chimera, phosphodiester and 2'-O-methyl, chemistry not fully specified)",IC50,"[3]; SCC-15, 10,000 cells per well, pretreated with tenascin",3 µM
"SEQ ID NO 1: GTCCCGACATGTCAGACAGG; phosphodiester antisense 20mer to CK2α translation start site (antisense GTCCCGACATGTCAGACAGG; all phosphodiester, sugars by position and methylation of C not given here)",IC50,[4],40 µM
same,IC50,[5],15 µM
